Assays:
[1] = pH value of compound, salts and lyophilized preparations; format: physicochemical; conditions: compound or its salts
Protocol: The solution was stirred for 10 min, and then stood for adsorption for 20 min, followed by filtering with a 0.22 μm microfiltration membrane, and then was placed into 2 ml vials. Each vial was filled with 1 ml of the solution, which was then lyophilized to obtain the product at the specification of 20 mg/vial. The product was a white loose block, with a pH value of 4.10.
(§1) 100) ml of water for injection was added at a low temperature (2-8° C.) to dissolve the compound, and 2.0 g of activated carbon for medicinal use was added. The solution was stirred for 10 min, and then stood for adsorption for 20 min, followed by filtering with a 0.22 μm microfiltration membrane, and then was placed into 2 ml vials. Each vial was filled with 1 ml of the solution, which was then lyophilized to obtain the product at the specification of 100 mg/vial.
as §1, with “100” for “100)”, “sodium dihydrogen phosphate-disodium hydrogen phosphate buffer (pH of 6.0)” for “water for injection”, “0.5” for “2.0”, “200” for “100”

[2] = hygroscopicity experiments of various salts; format: physicochemical; conditions: 25° C. ± 1° C.
[3] = known platinum drugs; cited from earlier work
[4] = relative humidity 44% ± 2%, 1 h
[5] = relative humidity 44% ± 2%, 24 h
[6] = relative humidity 69% ± 2%, 1 h
[7] = relative humidity 69% ± 2%, 24 h

Structure (SMILES) | pH value [1] | Hygroscopicity [2, 4] [%] | Status [2, 4] | Hygroscopicity [2, 5] [%] | Status [2, 5] | Hygroscopicity [2, 6] [%] | Status [2, 6] | Hygroscopicity [2, 7] [%] | Status [2, 7] | solubility [3] [mg/mL]
CCN(CC)CCCCC1C(=O)[O][Pt][O]C1=O.N[C@@H]1CCCC[C@H]1N [Example 1, (4-diethylamino)butylmalonato-(1R,2R)-(−)-1,2-cyclohexanediamine platinum(II)] | greater than 10 | – | – | – | – | – | – | – | – | –
CCN(CC)CCCCC1C(=O)[O][Pt]2([NH][C@@H]3CCCC[C@H]3[NH]2)[O]C1=O.CS(=O)(=O)O (stereo partly drawn) [Mesylate salt, 2-(4-diethylamino)butylmalonato-(1R,2R)-(−)-1,2-cyclohexanediamine platinum(II) mesylate] | – | 4.98 | Viscous | 9.89 | Light gray | 6.37 | Viscous | 13.89 | Light gray | –
CCN(CC)CCCCC1C(=O)[O][Pt]2([NH][C@@H]3CCCC[C@H]3[NH]2)[O]C1=O.Cc1ccc(S(=O)(=O)O)cc1 (stereo partly drawn) [Tosylate salt, 2-(4-diethylamino)butylmalonato-(1R,2R)-(−)-1,2-cyclohexanediamine platinum(II) tosylate] | – | 4.56 | Viscous | 8.78 | Light | 5.30 | Viscous | 9.86 | Light | –
CCN(CC)CCCCC1C(=O)[O][Pt]2([NH][C@@H]3CCCC[C@H]3[NH]2)[O]C1=O.O=C(O)/C=C/C(=O)O (stereo partly shown) [Fumarate salt] | – | 5.87 | Viscous | 10.83 | Semi- | 6.83 | Viscous | 13.90 | Semi- | –
N.N.O=C([O-])C1(C(=O)[O-])CCC1.[Pt+2] [carboplatin] | – | – | – | – | – | – | – | – | – | 17.8
CCN(CC)CCCCC1C(=O)[O][Pt]2([NH][C@@H]3CCCC[C@H]3[NH]2)[O]C1=O.O=C(O)[C@H](O)[C@@H](O)C(=O)O (stereo partly drawn) [L(+) tartrate salt, 2-(4-diethylamino)butylmalonato-(1R,2R)-(−)-1,2-cyclohexanediamine platinum(II) L-(+) tartrate] | – | 4.88 | Viscous | 9.76 | Light gray | 5.78 | Viscous | 12.79 | Light | –

— patent publication US11661434B2, “Phosphate of platinum compound and preparation method therefor” (Beijing Showby Pharmaceutical Co., LTD., priority 2018, dated 2023)
